Reference: PubChem BioAssay AID743505 (Broad Institute, 2014)
Active and inactive are the calls of the source.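 How the source made its calls: active means dose curve with falling signal and an AC50 no higher than twice the top valid tested dose; inconclusive means flat curve with 30 to 70% inhibition, or a poor fit; inactive means rising signal, flat weak curve, or AC50 over that limit.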

Target: Melanocortin receptor 4 (Homo sapiens) (UniProt P32245)
Assay: inhibition of alpha-MSH-driven MC4R cAMP reporter – cell-based, HEK293, luminescence, dry powder, counter-screen for LGR2 antagonist project, dose response (AID 743505)
Settings: HEK293 MC4R CRE-luciferase, antagonist mode

Sequence of Melanocortin receptor 4 (Homo sapiens) (P32245 whole entry, looked up): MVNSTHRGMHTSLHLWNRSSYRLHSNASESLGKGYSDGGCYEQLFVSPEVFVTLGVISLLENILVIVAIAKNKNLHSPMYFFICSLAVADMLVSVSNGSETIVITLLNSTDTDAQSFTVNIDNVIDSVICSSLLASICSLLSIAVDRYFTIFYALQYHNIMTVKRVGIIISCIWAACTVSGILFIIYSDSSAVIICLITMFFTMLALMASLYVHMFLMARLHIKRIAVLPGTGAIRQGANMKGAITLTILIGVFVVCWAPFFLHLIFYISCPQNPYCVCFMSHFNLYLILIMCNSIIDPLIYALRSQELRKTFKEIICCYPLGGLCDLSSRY

| Compound | AC50 |
| --- | --- |
| C[C@@H]1CCCCO[C@@H](CN(C)C(=O)Nc2cccc3ccccc23)[C@H](C)CN([C@@H](C)CO)C(=O)c2cc(NC(=O)C3CCCCC3)ccc2O1 | > 70 µM (inactive) |
| C[C@@H]1CCCCO[C@@H](CN(C)C(=O)Nc2cccc3ccccc23)[C@H](C)CN([C@H](C)CO)C(=O)c2cc(NC(=O)C3CCCCC3)ccc2O1 | 7.91 µM |

Second part, the molecule after the results:

| AC50 | Compound |
| --- | --- |
| > 70 µM (inactive) | C[C@H]1CCCCO[C@@H](CN(C)S(=O)(=O)c2ccc(Cl)cc2)[C@@H](C)CN([C@@H](C)CO)C(=O)c2cc(NC(=O)NC3CCCCC3)ccc2O1 |
| > 70 µM (inactive) | C[C@@H]1CCCCO[C@H](CN(C)C(=O)Nc2cccc3ccccc23)[C@@H](C)CN([C@H](C)CO)C(=O)c2cc(NC(=O)C3CCCCC3)ccc2O1 |

Same assay, conditions: HEK293 MC4R CRE-luciferase, antagonist mode, at 35 µM (top of the series)

| Compound | activity change, negative = inhibition |
| --- | --- |
| COc1ccc(S(=O)(=O)N(C)C[C@@H]2OCCCC[C@H](C)Oc3ccc(NS(=O)(=O)c4ccc(F)cc4)cc3C(=O)N([C@@H](C)CO)C[C@@H]2C)cc1 | inactive |
| C[C@@H]1CCCCO[C@@H](CN(C)C(=O)Nc2cccc3ccccc23)[C@@H](C)CN([C@H](C)CO)C(=O)c2cc(NC(=O)C3CCCCC3)ccc2O1 | inactive |
| C[C@@H]1CCCCO[C@H](CN(C)C(=O)Nc2cccc3ccccc23)[C@H](C)CN([C@@H](C)CO)C(=O)c2cc(NC(=O)C3CCCCC3)ccc2O1 | inactive |
| CC(=O)Nc1ccc2c(c1)C(=O)N([C@H](C)CO)C[C@H](C)[C@H](CN(C)C(=O)Nc1ccc(F)cc1)OCCCC[C@H](C)O2 | inactive |
| C[C@H](CO)N1C[C@H](C)[C@H](CN(C)C(=O)Nc2ccc(F)cc2)OCCCC[C@H](C)Oc2ccc(NC(=O)C3CCOCC3)cc2C1=O | inactive |
| COc1ccc(NC(=O)N(C)C[C@@H]2OCCCC[C@H](C)Oc3ccc(NC(=O)C4CCCCC4)cc3C(=O)N([C@H](C)CO)C[C@@H]2C)cc1 | inactive |
| C[C@@H]1CN([C@H](C)CO)C(=O)c2cc(NC(=O)C3CCCCC3)ccc2O[C@@H](C)CCCCO[C@@H]1CN(C)C(=O)Nc1cccc2ccccc12 | inactive |
| C[C@H](CO)N1C[C@H](C)[C@H](CN(C)C(=O)Nc2ccc(F)cc2)OCCCC[C@H](C)Oc2ccc(NC(=O)Nc3ccc(F)cc3)cc2C1=O | inactive |
| C[C@H](CO)N1C[C@H](C)[C@H](CN(C)C(=O)Nc2ccccc2)OCCCC[C@H](C)Oc2ccc(NC(=O)Nc3ccccc3)cc2C1=O | inactive |
| Cc1ccc(NC(=O)N(C)C[C@@H]2OCCCC[C@H](C)Oc3ccc(NC(=O)C4CCCCC4)cc3C(=O)N([C@H](C)CO)C[C@@H]2C)cc1 | inactive |
| C[C@H](CO)N1C[C@H](C)[C@H](CN(C)C(=O)Nc2ccc(C(F)(F)F)cc2)OCCCC[C@H](C)Oc2ccc(NC(=O)CCC(F)(F)F)cc2C1=O | inactive |
| COc1ccc(NC(=O)N(C)C[C@@H]2OCCCC[C@H](C)Oc3ccc(NC(=O)NC4CCCCC4)cc3C(=O)N([C@H](C)CO)C[C@@H]2C)cc1 | inactive |
| C[C@@H]1CN([C@H](C)CO)C(=O)c2cc(NC(=O)C3CCCCC3)ccc2O[C@@H](C)CCCCO[C@H]1CN(C)C(=O)Nc1cccc2ccccc12 | inactive |
| C[C@@H]1CCCCO[C@H](CN(C)C(=O)Nc2cccc3ccccc23)[C@H](C)CN([C@H](C)CO)C(=O)c2cc(NC(=O)C3CCCCC3)ccc2O1 | inactive |
| C[C@H](CO)N1C[C@H](C)[C@H](CN(C)C(=O)Nc2ccccc2)OCCCC[C@H](C)Oc2ccc(NC(=O)CCC(F)(F)F)cc2C1=O | inactive |
| C[C@@H]1CCCCO[C@H](CN(C)C(=O)Nc2cccc3ccccc23)[C@@H](C)CN([C@@H](C)CO)C(=O)c2cc(NC(=O)C3CCCCC3)ccc2O1 | inactive |
| C[C@H](CO)N1C[C@H](C)[C@H](CN(C)C(=O)Nc2ccccc2)OCCCC[C@H](C)Oc2ccc(NC(=O)Nc3ccc4c(c3)OCO4)cc2C1=O | inactive |
| C[C@H]1CCCCO[C@H](CN(C)C(=O)Nc2cccc3ccccc23)[C@@H](C)CN([C@@H](C)CO)C(=O)c2cc(NC(=O)C3CCCCC3)ccc2O1 | inactive |
| C[C@H](CO)N1C[C@H](C)[C@H](CN(C)C(=O)Nc2ccc3c(c2)OCO3)OCCCC[C@H](C)Oc2ccc(NC(=O)NC3CCCCC3)cc2C1=O | inactive |
| C[C@H](CO)N1C[C@H](C)[C@H](CN(C)C(=O)Nc2ccc3c(c2)OCO3)OCCCC[C@H](C)Oc2ccc(NC(=O)C3CCCCC3)cc2C1=O | inactive |
| C[C@H](CO)N1C[C@H](C)[C@H](CN(C)C(=O)Nc2ccc(F)cc2)OCCCC[C@H](C)Oc2ccc(NC(=O)C3CCCCCC3)cc2C1=O | inactive |
| C[C@H](CO)N1C[C@H](C)[C@H](CN(C)C(=O)Nc2ccc3ccccc3c2)OCCCC[C@H](C)Oc2ccc(NC(=O)C3CCCCC3)cc2C1=O | inactive |
| C[C@H](CO)N1C[C@H](C)[C@H](CN(C)C(=O)Nc2ccc(F)cc2)OCCCC[C@H](C)Oc2ccc(NC(=O)C3CC3)cc2C1=O | inactive |
| C[C@H](CO)N1C[C@H](C)[C@H](CN(C)C(=O)Nc2cccc3ccccc23)OCCCC[C@H](C)Oc2ccc(NC(=O)c3ccccc3)cc2C1=O | inactive |
| C[C@H](CO)N1C[C@H](C)[C@H](CN(C)C(=O)Nc2cccc3ccccc23)OCCCC[C@H](C)Oc2ccc(NC(=O)C3CCCCC3)cc2C1=O | inactive |
| C[C@@H]1CN([C@@H](C)CO)C(=O)c2cc(NC(=O)C3CCCCC3)ccc2O[C@@H](C)CCCCO[C@@H]1CN(C)C(=O)Nc1cccc2ccccc12 | inactive |
| C[C@H](CO)N1C[C@H](C)[C@H](CN(C)C(=O)Nc2ccc(F)cc2)OCCCC[C@H](C)Oc2ccc(NC(=O)C3CCC3)cc2C1=O | inactive |
| C[C@H](CO)N1C[C@H](C)[C@H](CN(C)C(=O)Nc2ccc(C(F)(F)F)cc2)OCCCC[C@H](C)Oc2ccc(NC(=O)NC3CCCCC3)cc2C1=O | inactive |
| C[C@H]1CCCCO[C@@H](CN(C)C(=O)Nc2ccc(F)cc2)[C@@H](C)CN([C@@H](C)CO)C(=O)c2cc(NC(=O)C3CCCCC3)ccc2O1 | inactive |
| C[C@H]1CCCCO[C@@H](CN(C)C(=O)Nc2cccc3ccccc23)[C@@H](C)CN([C@@H](C)CO)C(=O)c2cc(NC(=O)C3CCCCC3)ccc2O1 | inactive |

The next lines start with the values.

| activity change, negative = inhibition | Compound |
| --- | --- |
| inactive | C[C@H](CO)N1C[C@H](C)[C@H](CN(C)C(=O)Nc2ccccc2)OCCCC[C@H](C)Oc2ccc(NC(=O)C3CCCCC3)cc2C1=O |
| inactive | C[C@H](CO)N1C[C@H](C)[C@H](CN(C)C(=O)Nc2ccc(Cl)cc2)OCCCC[C@H](C)Oc2ccc(NC(=O)C3CCCCC3)cc2C1=O |
| inactive | C[C@H](CO)N1C[C@H](C)[C@H](CN(C)C(=O)Nc2cccc3ccccc23)OCCCC[C@H](C)Oc2ccc(NC(=O)NC3CCCCC3)cc2C1=O |
| inactive | C[C@H](CO)N1C[C@H](C)[C@H](CN(C)C(=O)Nc2cccc(F)c2)OCCCC[C@H](C)Oc2ccc(NC(=O)C3CCCCC3)cc2C1=O |
| inactive | C[C@H](CO)N1C[C@H](C)[C@H](CN(C)C(=O)Nc2ccc(F)cc2)OCCCC[C@H](C)Oc2ccc(NC(=O)C3CCCCC3)cc2C1=O |
| inactive | C[C@H](CO)N1C[C@H](C)[C@H](CN(C)C(=O)Nc2ccc(F)cc2)OCCCC[C@H](C)Oc2ccc(NC(=O)Nc3ccccc3)cc2C1=O |
| inactive | C[C@H]1CCCCO[C@@H](CN(C)C(=O)Nc2ccc3c(c2)OCO3)[C@@H](C)CN([C@@H](C)CO)C(=O)c2cc(NC(=O)NC3CCCCC3)ccc2O1 |
| inactive | C[C@H](CO)N1C[C@H](C)[C@H](CN(C)C(=O)Nc2ccccc2)OCCCC[C@H](C)Oc2ccc(NC(=O)NC3CCCCC3)cc2C1=O |
| inactive | C[C@H](CO)N1C[C@H](C)[C@H](CN(C)C(=O)Nc2ccc(F)cc2)OCCCC[C@H](C)Oc2ccc(NC(=O)NC3CCCCC3)cc2C1=O |
| inactive | CC(C)(C)c1ccc(-c2nc(-c3ccncc3)no2)cc1 |
| inactive | C[C@H](CO)N1C[C@H](C)[C@@H](CN(C)C(=O)Nc2cccc3ccccc23)OCCCC[C@H](C)Oc2ccc(NC(=O)C3CCCCC3)cc2C1=O |
| inactive | C[C@H](CO)N1C[C@H](C)[C@H](CN(C)C(=O)Nc2ccccc2F)OCCCC[C@H](C)Oc2ccc(NC(=O)C3CCCCC3)cc2C1=O |
| inactive | C[C@H](CO)N1C[C@H](C)[C@H](CN(C)C(=O)Nc2ccc(F)cc2)OCCCC[C@H](C)Oc2ccc(NC(=O)C3CCCC3)cc2C1=O |
| inactive | C[C@H]1CCCCO[C@@H](CN(C)C(=O)Nc2ccccc2)[C@@H](C)CN([C@@H](C)CO)C(=O)c2cc(NC(=O)NC3CCCCC3)ccc2O1 |
| inactive | C[C@H]1CCCCO[C@@H](CN(C)C(=O)Nc2ccc(C(F)(F)F)cc2)[C@@H](C)CN([C@@H](C)CO)C(=O)c2cc(NC(=O)CCC(F)(F)F)ccc2O1 |
| inactive | C[C@H](CO)N1C[C@H](C)[C@H](CN(C)C(=O)Nc2cccc3ccccc23)OCCCC[C@H](C)Oc2ccc(NC(=O)CCC(F)(F)F)cc2C1=O |
| inactive | C[C@@H]1CN([C@@H](C)CO)C(=O)c2cc(NC(=O)C3CCCCC3)ccc2O[C@@H](C)CCCCO[C@H]1CN(C)C(=O)Nc1cccc2ccccc12 |
